Data taken from patent US6821967B2, “Substituted piperazine derivatives, the preparation thereof and their use as medicaments” (Boehringer Ingelheim Pharma KG, priority 1999, dated 2004).

Structure (SMILES)	melting point
C[C@@H]1CN(c2ncc3ccccc3n2)C[C@H](C)N1CCCCC1(C(=O)NCC(F)(F)F)c2ccccc2-c2ccccc21 [Example 47, 9-[4-(cis-2,6-dimethyl-4-quinazolin-2-yl-piperazin-1-yl)-butyl]-9H-fluorene-9-carboxylic acid-(2,2,2-trifluoro-ethyl)-amide]	174 °C
O=C(NCC(F)(F)F)C1(CCCCN2CCN(c3ccc4cccc(Cl)c4n3)CC2)c2ccccc2Oc2ccccc21 [Example 106, 9-{4-[4-(8-chloro-quinolin-2-yl)-piperazin-1-yl]-butyl}-9H-xanthene-9-carboxylic acid-(2,2,2-trifluoro-ethyl)-amide]	68 °C
COc1ccc(CNC(=O)C2(CCCCN3CCN(c4ccc5c(Cl)cccc5n4)CC3)c3ccccc3-c3ccccc32)cc1 [Example 73, 9-{4-[4-(5-chloro-quinolin-2-yl)-piperazin-1-yl]-butyl}-9H-fluorene-9-carboxylic acid-4-methoxy-benzylamide]	135 to 136 °C
COc1ccc(CNC(=O)C2(CCCCN3CCN(c4ccc5ccccc5n4)CC3)c3ccccc3-c3ccccc32)c(OC)c1 [Example 82, 9-[4-(4-quinolin-2-yl-piperazin-1-yl)-butyl]-9H-fluorene-9-carboxylic acid-2,4-dimethoxy-benzylamide]	44 °C
C[C@@H]1CN(c2ccc3ccccc3n2)C[C@H](C)N1CCCCC1(C(=O)NCc2ccc(F)cc2)c2ccccc2-c2ccccc21 [Example 65, 9-[4-(cis-2,6-dimethyl-4-quinolin-2-yl-piperazin-1-yl)butyl]-9H-fluorene-9-carboxylic acid-4-fluoro-benzylamide]	62 °C
O=C(NCc1ccc(F)c(F)c1)C1(CCCCN2CCN(c3ccc4ccccc4n3)CC2)c2ccccc2-c2ccccc21 [Example 85, 9-[4-(4-quinolin-2-yl-piperazin-1-yl)-butyl]-9H-fluorene-9-carboxylic acid-3,4-difluoro-benzylamide]	141 to 143 °C
C[C@H]1CN(c2ccc3ccccc3n2)CCN1CCCCC1(C(=O)NCC(F)(F)F)c2ccccc2-c2ccccc21 [Example 38, 9-{4-[(S)-2-methyl-4-quinolin-2-yl-piperazin-1-yl]-butyl}-9H-fluorene-9-carboxylic acid-(2,2,2-trifluoro-ethyl)-amide]	102 °C
C[C@@H]1CN(c2nc3ccccc3s2)C[C@H](C)N1CCCCC1(C(=O)NCC(F)(F)F)c2ccccc2-c2ccccc21 [Example 45, 9-[4-(4-benzothiazole-2-yl-cis-2,6-dimethyl-piperazin-1-yl)-butyl]-9H-fluorene-9-carboxylic acid-(2,2,2-trifluoro-ethyl)-amide]	163 to 165 °C
COc1ccc(CNC(=O)C2(CCCCN3CCN(c4ncc5ccccc5n4)CC3)c3ccccc3-c3ccccc32)cc1 [Example 74, 9-[4-(4-quinazolin-2-yl-piperazin-1-yl)-butyl]-9H-fluorene-9-carboxylic acid-4-methoxy-benzylamide]	143 to 144 °C
O=C(NCc1ccc(F)cc1)C1(CCCCN2CCN(c3ccc4ccccc4n3)CC2)c2ccccc2-c2ccccc21 [Example 53, 9-[4-(4-quinolin-2-yl-piperazin-1-yl)-butyl]-9H-fluorene-9-carboxylic acid-4-fluoro-benzylamide]	58 °C
C[C@@H]1CN(c2ccc3ccccc3n2)C[C@H](C)N1CCCCC1(C(=O)NCC(F)(F)F)c2ccccc2Oc2ccccc21 [Example 111, 9-[4-(cis-2,6-dimethyl-4-quinolin-2-yl-piperazin-1-yl)-butyl]-9H-xanthene-9-carboxylic acid-(2,2,2-trifluoro-ethyl)-amide]	177 °C
O=C(O)CCNC(=O)C1(CCCCN2CCN(c3ccc4ccccc4n3)CC2)c2ccccc2-c2ccccc21 [Example 96, 9-[4-(4-quinolin-2-yl-piperazin-1-yl)-butyl]-9H-fluorene-9-carboxylic acid-(2-carboxy-ethyl)-amide]	98 to 100 °C
COc1ccc(CNC(=O)C2(CCCCN3CCN(c4ccc5ccccc5n4)CC3)c3ccccc3-c3ccccc32)cc1OC [Example 83, 9-[4-(4-quinolin-2-yl-piperazin-1-yl)-butyl]-9H-fluorene-9-carboxylic acid-3,4-dimethoxy-benzylamide]	118 °C
O=C(NCC(F)(F)F)C1(CCCCN2CCN(c3ccc4ccccc4n3)CC2)c2ccccc2Oc2ccccc21 [Example 103, 9-[4-(4-quinolin-2-yl-piperazin-1-yl)-butyl]-9H-xanthene-9-carboxylic acid-(2,2,2-trifluoro-ethyl)-amide]	178 °C
O=C(N1CCOCC1)C1(CCCCN2CCN(c3ccc4ccccc4n3)CC2)c2ccccc2Oc2ccccc21 [Example 120, 1-morpholin-4-yl-1-{9-[4-(4-quinolin-2-yl-piperazin-1-yl)-butyl]-9H-xanthene-9-yl}-methanone]	48 to 58 °C
O=C(NCc1ccc(F)cc1)C1(CCCCN2CCN(c3nc4ccccc4s3)CC2)c2ccccc2-c2ccccc21 [Example 59, 9-[4-(4-benzothiazol-2-yl-piperazin-1-yl)-butyl]-9H-fluorene-9-carboxylic acid-4-fluoro-benzylamide]	160 °C
COC(=O)CCNC(=O)C1(CCCCN2CCN(c3ccc4ccccc4n3)CC2)c2ccccc2-c2ccccc21 [Example 94, 9-[4-(4-quinolin-2-yl-piperazin-1-yl)-butyl]-9H-fluorene-9-carboxylic acid-(2-methoxycarbonyl-ethyl)-amide]	110 to 112 °C
C[C@@H]1CN(c2ncc3ccccc3n2)C[C@H](C)N1CCCCC1(C(=O)NCc2ccc(F)cc2)c2ccccc2-c2ccccc21 [Example 67, 9-[4-(cis-2,6-dimethyl-4-quinazoline-2-yl-piperazin-1-yl)-butyl]-9H-fluorene-9-carboxylic acid-4-fluoro-benzylamide]	172 °C
O=C(NCc1cccs1)C1(CCCCN2CCN(c3ccc4ccccc4n3)CC2)c2ccccc2-c2ccccc21 [Example 90, 9-[4-(4-quinolin-2-yl-piperazin-1-yl)-butyl]-9H-fluorene-9-carboxylic acid-(thiophen-2-ylmethyl)-amide]	45 to 50 °C
C[C@@H]1CN(c2nc3ccccc3o2)C[C@H](C)N1CCCCC1(C(=O)NCc2ccc(F)cc2)c2ccccc2-c2ccccc21 [Example 69, 9-[4-(4-benzoxazol-2-yl-cis-2,6-dimethyl-piperazin-1-yl)-butyl]-9H-fluorene-9-carboxylic acid-4-fluoro-benzylamide]	153 °C

The next lines start with the values.

melting point	Structure (SMILES)
128 °C	O=C(NCC(F)(F)F)C1(CCCCN2CCN(c3nc4ccccc4o3)CC2)c2ccccc2-c2ccccc21 [Example 2, 9-[4-(4-(benzoxazol-2-yl)-piperazin-1-yl)-butyl]-9H-fluorene-9-carboxylic acid-(2,2,2-trifluoro-ethyl)-amide]
146 °C	COc1cccc2c1nc(N1CCN(CCCCC3(C(=O)NCC(F)(F)F)c4ccccc4-c4ccccc43)CC1)n2C [Example 20, 9-{4-[4-(4-methoxy-1-methyl-1H-benzimidazol-2-yl)-piperazin-1-yl]-butyl}-9H-fluorene-9-carboxylic acid-(2,2,2-trifluoro-ethyl)-amide]
68 °C	O=C(NCC(F)(F)F)C1(CCCN2CCN(c3nc4ccccc4s3)CC2)c2ccccc2-c2ccccc21 [Example 122, 9-[3-(4-benzothiazol-2-yl-piperazin-1-yl)-propyl]-9H-fluorene-9-carboxylic acid-(2,2,2-trifluoro-ethyl)-amide]
59 °C	Cn1c(N2CCN(CCCCC3(C(=O)NCC(F)(F)F)c4ccccc4-c4ccccc43)CC2)nc2cc(F)ccc21 [Example 18, 9-{4-[4-(5-fluoro-1-methyl-1H-benzimidazol-2-yl)-piperazin-1-yl]-butyl}-9H-fluorene-9-carboxylic acid-(2,2,2-trifluoro-ethyl)-amide]
110 °C	Cn1c(N2CCN(CCCCC3(C(=O)NCC(F)(F)F)c4ccccc4Oc4ccccc43)CC2)nc2ccccc21 [Example 102, 9-{4-[4-(1-methyl-1H-benzimidazol-2-yl)-piperazin-1-yl]-butyl}-9H-xanthene-9-carboxylic acid-(2,2,2-trifluoro-ethyl)-amide]
55 °C	Cn1c(N2CCN(CCCCC3(C(=O)NCc4ccc(F)cc4)c4ccccc4-c4ccccc43)CC2)nc2ccccc21 [Example 60, 9-{4-[4-(1-methyl-1H-benzimidazol-2-yl)-piperazin-1-yl]-butyl}-9H-fluorene-9-carboxylic acid-4-fluoro-benzylamide]
120 °C	Cn1c(N2CCN(CCCCC3(C(=O)NCC(F)(F)C(F)(F)F)c4ccccc4-c4ccccc43)CC2)nc2ccccc21 [Example 87, 9-{4-[4-(1-methyl-1H-benzimidazol-2-yl)-piperazin-1-yl]-butyl}-9H-fluorene-9-carboxylic acid-(2,2,3,3,3-pentafluoro-propyl)-amide]
56 to 57 °C	O=C(NCC(F)(F)F)C1(CCCCN2CCN(c3ccc4ccccc4n3)CC2)c2ccccc2-c2ccccc21 [Example 3, 9-[4-(4-(quinolin-2-yl)-piperazin-1-yl)-butyl]-9H-fluorene-9-carboxylic acid-(2,2,2-trifluoro-ethyl)-amide]
146 to 148 °C	O=C(NCC(F)(F)F)C1(CCCCN2CCN(c3ccc4ccc(Cl)cc4n3)CC2)c2ccccc2-c2ccccc21 [Example 26, 9-{4-[4-(7-chloro-quinolin-2-yl)-piperazin-1-yl]-butyl}-9H-fluorene-9-carboxylic acid-(2,2,2-trifluoro-ethyl)-amide]
66 °C	O=C(NCC(F)(F)F)C1(CCCCN2CCN(c3ccc4cccc(Br)c4n3)CC2)c2ccccc2-c2ccccc21 [Example 32, 9-{4-[4-(8-bromo-quinolin-2-yl)-piperazin-1-yl]-butyl}-9H-fluorene-9-carboxylic acid-(2,2,2-trifluoro-ethyl)-amide]
166 °C	CCn1c(N2CCN(CCCCC3(C(=O)NCc4ccc(F)cc4)c4ccccc4-c4ccccc43)CC2)nc2ccccc21 [Example 61, 9-{4-[4-(1-ethyl-1H-benzimidazol-2-yl)-piperazin-1-yl]-butyl}-9H-fluorene-9-carboxylic acid-4-fluoro-benzylamide]
